Among the test systems are OVCAR-8; CCRF-CEM; MCF7; NCI/ADR-RES; HOP-62; TK-10; CAKI-1; NCI-H460; LOX IMVI; MDA-N; SR; SF-295; M14; IGROV-1; NCI-H23; SK-MEL-2; HOP-92; T47D.
What all share (test): NCI anticancer screen, dose series, 48 h

Molecules are shown by their SMILES.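 Compound exposure: 48 hours, 5 concentrations, 96-well plates. Abbreviation: GI50, concentration required for 50% inhibition of growth.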 The source made the active and inactive calls. Rule as the data show it: active = GI50 up to about 1.1 µM and inactive = higher.

`O=[N+]([O-])c1ccc(/C=C/c2cc(-c3ccccc3)nc3ccc4ccccc4c23)cc1`: the GI50 in the experiment on OVCAR-8 is > 100 µM (inactive); with CCRF-CEM it was > 100 µM (inactive); with MCF7 it was 57 µM (inactive); with NCI/ADR-RES, > 100 µM (inactive); in the experiment with HOP-62, > 100 µM (inactive); with TK-10 it was > 100 µM (inactive). Also, the GI50 in the experiment with CAKI-1, in the experiment with NCI-H460, with LOX IMVI, in the experiment with MDA-N, with SR and in the experiment with SF-295 was > 100 µM (inactive) each time. In addition, the GI50 with M14, with IGROV-1 and in the experiment with NCI-H23 was > 100 µM (inactive) in each case.
With `OCC1OC(Oc2cc(O)cc(/C=C\c3ccc(O)cc3)c2)C(O)C(O)C1O` (stereo unspecified), the GI50 in the experiment on OVCAR-8, in the experiment with CCRF-CEM, with MCF7, with NCI/ADR-RES, in the experiment with HOP-62 and in the experiment on TK-10 was > 100 µM (inactive) each time. Further, the GI50 in the experiment with SK-MEL-2, in the experiment on CAKI-1, in the experiment on NCI-H460, in the experiment with HOP-92, in the experiment on LOX IMVI and with MDA-N was > 100 µM (inactive) in each case. Further, the GI50 in the experiment on SR, with SF-295 and with IGROV-1 was > 100 µM (inactive) each time.
For the molecule `COC(=O)[C@@H]1C=C[C@@H](C#N)n2c(=O)n(-c3ccccc3)c(=O)n21`, the GI50 in the experiment on OVCAR-8 is 23.3 µM (inactive); in the experiment on CCRF-CEM it was 25.9 µM (inactive); in the experiment with MCF7, 19.5 µM (inactive); in the experiment with NCI/ADR-RES, 26.4 µM (inactive); in the experiment on T47D, 24.2 µM (inactive); in the experiment with HOP-62, 13.3 µM (inactive). Further, the GI50 was 82.2 µM (inactive) in the experiment on TK-10; 98.9 µM (inactive) in the experiment on CAKI-1; 45.4 µM (inactive) in the experiment on HOP-92; 10.6 µM (inactive) in the experiment on LOX IMVI; 20.6 µM (inactive) in the experiment with SR; 23.8 µM (inactive) in the experiment with SF-295. For the same molecule, the GI50 with M14 was 25.9 µM (inactive); in the experiment with IGROV-1, 32.6 µM (inactive); in the experiment on NCI-H23, 36.9 µM (inactive).
Consider `CC(=O)c1nc2ccccc2n1C(C)C(=O)c1ccccc1` (stereo unspecified), for which the GI50 in the experiment with OVCAR-8 was 23.1 µM (inactive); with CCRF-CEM, 39.6 µM (inactive); with MCF7, 22.2 µM (inactive); with NCI/ADR-RES it was 46 µM (inactive); with HOP-62 it was 57.1 µM (inactive); in the experiment on TK-10, 91.8 µM (inactive). For the same molecule, the GI50 was 61.5 µM (inactive) with CAKI-1; 33 µM (inactive) in the experiment with NCI-H460; 69.3 µM (inactive) in the experiment with HOP-92; 34.3 µM (inactive) in the experiment with LOX IMVI; 54.1 µM (inactive) in the experiment on MDA-N; 36.3 µM (inactive) in the experiment on SR. Moreover, the GI50 in the experiment with SF-295 was 54.6 µM (inactive); in the experiment with M14 it was 42.8 µM (inactive); with IGROV-1, 30.2 µM (inactive); with NCI-H23, > 100 µM (inactive).
In the case of `Nn1c(CCCCCCCCc2nnc(COc3ccc4ccccc4c3O)n2N)nnc1COc1ccc2ccccc2c1O`, the GI50 with MCF7 is 27.2 µM (inactive); in the experiment on NCI/ADR-RES it was 17.5 µM (inactive); in the experiment with TK-10 it was 49.2 µM (inactive); in the experiment with SK-MEL-2 it was 32.1 µM (inactive); with CAKI-1 it was 18.2 µM (inactive); in the experiment on NCI-H460, 29 µM (inactive). Moreover, the GI50 with HOP-92 was 17.3 µM (inactive); with SF-295, 28.6 µM (inactive); in the experiment with M14 it was 30.1 µM (inactive); in the experiment on IGROV-1 it was 4.92 µM (inactive); with NCI-H23 it was 16 µM (inactive).
As to `O=C1CCN/C(=N\C(=O)C(F)(F)F)N1CCc1c[nH]c2ccccc12`, the GI50 with OVCAR-8, in the experiment with CCRF-CEM, with MCF7, in the experiment with NCI/ADR-RES, with T47D and in the experiment on HOP-62 was > 100 µM (inactive) in each case. Besides, the GI50 in the experiment with TK-10, in the experiment with SK-MEL-2, in the experiment on CAKI-1, in the experiment on NCI-H460, with HOP-92 and in the experiment on LOX IMVI was > 100 µM (inactive) in each case. The GI50 in the experiment with MDA-N, with SF-295, in the experiment with M14, in the experiment on IGROV-1 and in the experiment with NCI-H23 was > 100 µM (inactive) throughout.
On to `C[C@H](CCC(=O)O)[C@H]1CC[C@H]2[C@@H]3CC[C@@H]4C[C@H](O)CC[C@]4(C)[C@H]3C[C@H](O)[C@]12C` [DEOXYCHOLIC ACID], for which the GI50 is 39.4 µM (inactive) with OVCAR-8; 23.9 µM (inactive) with CCRF-CEM; 36.2 µM (inactive) in the experiment on MCF7; 44.5 µM (inactive) with NCI/ADR-RES; 31.4 µM (inactive) in the experiment on T47D; 26.4 µM (inactive) in the experiment on HOP-62. The GI50 is > 100 µM (inactive) in the experiment with TK-10; 31.2 µM (inactive) in the experiment with SK-MEL-2; 69.5 µM (inactive) in the experiment on CAKI-1; 40.7 µM (inactive) in the experiment on NCI-H460; 40.8 µM (inactive) in the experiment with LOX IMVI; 42.2 µM (inactive) in the experiment with MDA-N. In addition, the GI50 in the experiment with SF-295 was 17.8 µM (inactive); in the experiment with M14, 34.3 µM (inactive); with IGROV-1, 27.9 µM (inactive); in the experiment on NCI-H23 it was 39.7 µM (inactive).
As for `NC1=NN(c2ccccc2)C2(c3ccncc3C(=O)O)C1C(N)=NN2c1ccccc1` (stereo unspecified), the GI50 in the experiment with OVCAR-8, in the experiment with CCRF-CEM, in the experiment on MCF7, with NCI/ADR-RES, in the experiment on T47D and with SK-MEL-2 was > 100 µM (inactive) in each case. Besides, the GI50 in the experiment on CAKI-1, in the experiment with NCI-H460, with HOP-92, with LOX IMVI, in the experiment on MDA-N and with SF-295 was > 100 µM (inactive) each time. The GI50 in the experiment on M14, in the experiment with IGROV-1 and in the experiment with NCI-H23 was > 100 µM (inactive) each time.
In the case of `CCOC(=O)c1nc2ccccc2nc1Oc1ccc(C(=O)OC)cc1`, the GI50 is > 100 µM (inactive) with OVCAR-8; 41.8 µM (inactive) in the experiment with CCRF-CEM; > 100 µM (inactive) in the experiment with MCF7; > 100 µM (inactive) with NCI/ADR-RES; > 100 µM (inactive) in the experiment with T47D; > 100 µM (inactive) in the experiment on HOP-62. Moreover, the GI50 with TK-10, in the experiment with SK-MEL-2, in the experiment on CAKI-1, in the experiment with NCI-H460, with HOP-92 and with LOX IMVI was > 100 µM (inactive) in each case. For the same molecule, the GI50 in the experiment on MDA-N, with SF-295, with M14 and in the experiment with IGROV-1 was > 100 µM (inactive) in each case.
Consider `CN(C)c1nncc2[nH]cnc12`, for which the GI50 in the experiment on OVCAR-8, with CCRF-CEM, in the experiment with MCF7, with NCI/ADR-RES, in the experiment on T47D and with HOP-62 was > 100 µM (inactive) throughout. The GI50 in the experiment with TK-10, in the experiment with SK-MEL-2, in the experiment with CAKI-1, with NCI-H460, in the experiment on SR and in the experiment with SF-295 was > 100 µM (inactive) each time. The GI50 in the experiment with M14, with IGROV-1 and in the experiment on NCI-H23 was > 100 µM (inactive) in each case.
Turning to `CCOc1c(OC)cc(C2c3cc4c(c(OCC)c3CC3COC(=O)C32)OCO4)cc1OC` (stereo unspecified), the GI50 in the experiment on OVCAR-8 is 2.11 µM (inactive); in the experiment with CCRF-CEM, 2.67 µM (inactive); with MCF7, 0.574 µM (active); in the experiment on NCI/ADR-RES, 2.03 µM (inactive); with T47D, 23 µM (inactive); in the experiment with HOP-62, 1.78 µM (inactive). Moreover, the GI50 with TK-10 is 5.87 µM (inactive); in the experiment with SK-MEL-2 it was 13.2 µM (inactive); with CAKI-1 it was 5.16 µM (inactive); with NCI-H460 it was 3.21 µM (inactive); in the experiment with HOP-92, 37.1 µM (inactive); with LOX IMVI, 1.67 µM (inactive). The GI50 in the experiment with SR is 0.247 µM (active); with SF-295, 1 µM (active); in the experiment on M14, 3.15 µM (inactive); with IGROV-1, 2.41 µM (inactive); with NCI-H23, 1.82 µM (inactive).
Take `COc1ccc(N2C(=O)CC(c3c[nH]c4ccccc34)C2=O)cc1` (stereo unspecified): the GI50 with OVCAR-8 was > 100 µM (inactive); in the experiment on CCRF-CEM, > 100 µM (inactive); in the experiment with MCF7, > 100 µM (inactive); with NCI/ADR-RES it was 97.3 µM (inactive); with HOP-62, > 100 µM (inactive); with TK-10 it was > 100 µM (inactive). Moreover, the GI50 in the experiment with SK-MEL-2, in the experiment with CAKI-1, in the experiment with NCI-H460, with HOP-92, in the experiment on LOX IMVI and with MDA-N was > 100 µM (inactive) throughout. Further, the GI50 with SR, in the experiment with SF-295, with M14, with IGROV-1 and with NCI-H23 was > 100 µM (inactive) in each case.
Consider `CCCCCCCCCCCCSC(=S)c1c(C)[nH]n(-c2ccccc2)c1=O`, for which the GI50 was 14 µM (inactive) with OVCAR-8; 2.9 µM (inactive) with CCRF-CEM; 5.16 µM (inactive) in the experiment with HOP-62; 22.2 µM (inactive) with TK-10; 19.1 µM (inactive) with CAKI-1; 25.8 µM (inactive) in the experiment on HOP-92. Also, the GI50 with LOX IMVI was 15.9 µM (inactive); in the experiment on SF-295 it was 12.5 µM (inactive); in the experiment with M14 it was 13.4 µM (inactive); in the experiment with IGROV-1 it was 14.6 µM (inactive); in the experiment on NCI-H23, 13.3 µM (inactive).
